Reference: publication PMC10663540, “Structure-based discovery of dual pathway inhibitors for SARS-CoV-2 entry” (Nature Communications, 2023)
Values joined by “and” are separate entries in the source; they are usually repeats but may differ in a detail not shown here. Identical values can stand only once. Like-named read-outs stand apart in the source and are kept apart here.

Columns and labels:
Calu-3 cells = conditions: rep1-rep3
SARS-CoV-2 = format: cell-based
TMPRSS2 = TMPRSS2 (Homo sapiens, UniProt O15393); experiment: biochemical; format: biochemical; conditions: for inhibition at 0.000610352 µM / inhibition at 0.0012207 µM / inhibition at 0.00244141 µM / inhibition at 0.00488281 µM / inhibition at 0.00976562 µM / inhibition at 0.0195312 µM / inhibition at 0.0390625 µM / inhibition at 0.078125 µM / inhibition at 0.15625 µM / inhibition at 0.3125 µM / inhibition at 0.625 µM / inhibition at 1.25 µM / inhibition at 2.5 µM / inhibition at 5 µM: read-out: Inhibition: TMPRSS2
in vitro = conditions: human

TMPRSS2, sequence (O15393 256-492): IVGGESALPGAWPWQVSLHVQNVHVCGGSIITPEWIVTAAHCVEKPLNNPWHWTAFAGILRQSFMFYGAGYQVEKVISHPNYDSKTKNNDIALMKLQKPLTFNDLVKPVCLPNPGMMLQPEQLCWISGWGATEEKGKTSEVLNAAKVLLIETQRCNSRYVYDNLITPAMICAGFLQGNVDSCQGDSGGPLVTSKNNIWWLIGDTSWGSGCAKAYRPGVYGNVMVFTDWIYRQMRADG
TMPRSS2, sequence (O15393 other isoform, or with tags, fused parts or gaps): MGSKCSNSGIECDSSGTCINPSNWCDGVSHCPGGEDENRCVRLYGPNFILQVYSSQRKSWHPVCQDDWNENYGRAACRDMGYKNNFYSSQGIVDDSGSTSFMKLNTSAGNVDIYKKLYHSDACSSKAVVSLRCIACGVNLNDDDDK

With CN(C)C(=O)COC(=O)Cc1ccc(OC(=O)c2ccc(NC(=N)N)cc2)cc1 [Camostat] the Cytotoxicity (Calu-3 cells; 0.0128 μM) was 0.76% and 0.62% and 0.69%, the Cytotoxicity (Calu-3 cells; 0.064 μM) was 2.27% and 2.13% and 2.46% and the Cytotoxicity (Calu-3 cells; 8 μM) was 7.46% and 7.33% and 7.34%. For the same molecule, the Cytotoxicity (Calu-3 cells; 40 μM) was 10.06% and 10.11% and 10.29%, the Cytotoxicity (Calu-3 cells; 200 μM) was 58.17% and 58.19% and 58.30% and the Cytotoxicity (Calu-3 cells; 1000 μM) was 96.27% and 96.26% and 96.22%. The Virus titer (SARS-CoV-2; Camostat 1.1 μM, Supplementary Fig. 7b) was 7460 TCID50/ml and 6320 TCID50/ml and 12600 TCID50/ml, the Virus titer (SARS-CoV-2; Camostat 3.3 μM, Supplementary Fig. 7b) was 26200 TCID50/ml and 15900 TCID50/ml and 20000 TCID50/ml and the “Inhibition: TMPRSS2” value (TMPRSS2; 38.15 pM) was 2.63% and 1.07% and 2.97% and 3.20%. The “Inhibition: TMPRSS2” value (TMPRSS2; 76.29 pM) was 3.24% and 1.14% and 2.29% and 3.03%, the “Inhibition: TMPRSS2” value (TMPRSS2; 0.000152588 µM) was 4.34% and 0.64% and 2.45% and 2.60% and the “Inhibition: TMPRSS2” value (TMPRSS2; 0.000305176 µM) was 3.31% and 1.96% and 3.39% and 4.38%. For the same molecule, the “Inhibition: TMPRSS2” value (TMPRSS2; 0.000610352 µM) was 3.86% and 5.10% and 6.39%, the “Inhibition: TMPRSS2” value (TMPRSS2; 0.0012207 µM) was 7.07% and 9.81% and 8.80% and the “Inhibition: TMPRSS2” value (TMPRSS2; 0.00244141 µM) was 17.35% and 18.09% and 18.86%. For the same molecule, the “Inhibition: TMPRSS2” value (TMPRSS2; 0.00488281 µM) was 31.26% and 30.95% and 31.85%, the “Inhibition: TMPRSS2” value (TMPRSS2; 0.00976562 µM) was 51.72% and 52.80% and 52.15% and the “Inhibition: TMPRSS2” value (TMPRSS2; 0.0195312 µM) was 77.54% and 78.82% and 77.32%. The “Inhibition: TMPRSS2” value (TMPRSS2; 0.0390625 µM) was 94.79% and 94.98% and 94.57%, the “Inhibition: TMPRSS2” value (TMPRSS2; 0.078125 µM) was 99.75% and 99.96% and 99.42% and the “Inhibition: TMPRSS2” value (TMPRSS2; 0.15625 µM) was 100.65% and 100.24%. For the same molecule, the “Inhibition: TMPRSS2” value (TMPRSS2; 0.3125 µM) was 99.93% and 100.23% and 99.75%, the “Inhibition: TMPRSS2” value (TMPRSS2; 0.625 µM) was 100.21% and 100.53% and 100.35% and the “Inhibition: TMPRSS2” value (TMPRSS2; 1.25 µM) was 99.64% and 100.51%. For the same molecule, the “Inhibition: TMPRSS2” value (TMPRSS2; 2.5 µM) was 100.23% and 100.42% and 100.20%, the “Inhibition: TMPRSS2” value (TMPRSS2; 5 µM) was 99.87% and 100.54% and 99.70% and the inhibition at 0.000610352 µM (TMPRSS2) was 6.23%. The inhibition at 0.0012207 µM (TMPRSS2) was 9.58%, the inhibition at 0.00244141 µM (TMPRSS2) was 17.5% and the inhibition at 0.00488281 µM (TMPRSS2) was 31.5%. The inhibition at 0.00976562 µM (TMPRSS2) was 52.1%, the inhibition at 0.0195312 µM (TMPRSS2) was 77.3% and the inhibition at 0.0390625 µM (TMPRSS2) was 94.7%. The inhibition at 0.078125 µM (TMPRSS2) was 99.7%, the inhibition at 0.15625 µM (TMPRSS2) was 100% and the inhibition at 0.3125 µM (TMPRSS2) was 100%. For the same molecule, the inhibition at 0.625 µM (TMPRSS2) was 100%, the inhibition at 1.25 µM (TMPRSS2) was 100% and the inhibition at 2.5 µM (TMPRSS2) was 100%. It also gave an inhibition at 5 µM (TMPRSS2) of 100% and a CC50 (in vitro) of 173 µM.
With CC(C)(NS(=O)(=O)c1ccc2c(Cl)cnc(N=C(N)N)c2c1)C(=O)O [UK-371804] the Cytotoxicity (Calu-3 cells; 0.0128 μM) was 4.90% and 4.97% and 4.91%, the Cytotoxicity (Calu-3 cells; 0.064 μM) was 5.03% and 5.08% and 5.05% and the Cytotoxicity (Calu-3 cells; 8 μM) was 8.30% and 8.32% and 8.28%. The Cytotoxicity (Calu-3 cells; 40 μM) was 11.32% and 11.36% and 11.39%, the Cytotoxicity (Calu-3 cells; 200 μM) was 60.70% and 60.73% and 60.71% and the Cytotoxicity (Calu-3 cells; 1000 μM) was 98.32% and 98.37% and 98.33%. For the same molecule, the Virus titer (SARS-CoV-2; UK-371804 1.1 μM, Supplementary Fig. 7c) was 31700 TCID50/ml and 20000 TCID50/ml, the “Inhibition: TMPRSS2” value (TMPRSS2; 0.038147 nM, rep1-rep4, 3.8147e-05 µM) was 0.08% and 2.54% and 1.84% and 2.81% and the “Inhibition: TMPRSS2” value (TMPRSS2; 0.076294 nM, rep1-rep4, 7.6294e-05 µM) was 0.83% and 3.15% and 2.99% and 4.15%. The “Inhibition: TMPRSS2” value (TMPRSS2; 0.152588 nM, rep1-rep4, 0.000152588 µM) was 1.86% and 5.33% and 3.17% and 6.82%, the inhibition at 0.000305176 µM (TMPRSS2; 0.305176 nM, rep1-rep4) was 5.7% and the “Inhibition: TMPRSS2” value (TMPRSS2; 0.305176 nM, rep1-rep4, 0.000305176 µM) was 8.86% and 5.77% and 9.17%. The IC50 (TMPRSS2; 0.5 nM TMPRSS2, 10 μM substrate, mean ± SD, four replicates) was 4.59 nM, the “Inhibition: TMPRSS2” value (TMPRSS2; 0.610352 nM, rep1-rep4, 0.000610352 µM) was 13.28% and 12.75% and 14.23% and the inhibition at 0.000610352 µM (TMPRSS2; 0.610352 nM, rep1-rep4) was 10.6%. The “Inhibition: TMPRSS2” value (TMPRSS2; 1.2207 nM, rep1-rep4, 0.0012207 µM) was 21.81% and 21.57% and 22.98%, the inhibition at 0.0012207 µM (TMPRSS2; 1.2207 nM, rep1-rep4) was 19.4% and the “Inhibition: TMPRSS2” value (TMPRSS2; 2.44141 nM, rep1-rep4, 0.00244141 µM) was 37.42% and 35.32% and 36.99%. The inhibition at 0.00244141 µM (TMPRSS2; 2.44141 nM, rep1-rep4) was 34.9%, the “Inhibition: TMPRSS2” value (TMPRSS2; 4.88281 nM, rep1-rep4, 0.00488281 µM) was 52.70% and 52.38% and 53.49% and the inhibition at 0.00488281 µM (TMPRSS2; 4.88281 nM, rep1-rep4) was 50.8%. The “Inhibition: TMPRSS2” value (TMPRSS2; 9.76562 nM, rep1-rep4, 0.00976562 µM) was 69.20% and 69.17%, the inhibition at 0.00976562 µM (TMPRSS2; 9.76562 nM, rep1-rep4) was 68.8% and the “Inhibition: TMPRSS2” value (TMPRSS2; 19.5312 nM, rep1-rep4, 0.0195312 µM) was 82.58% and 82.53% and 82.55%. For the same molecule, the inhibition at 0.0195312 µM (TMPRSS2; 19.5312 nM, rep1-rep4) was 82.4%, the “Inhibition: TMPRSS2” value (TMPRSS2; 39.0625 nM, rep1-rep4, 0.0390625 µM) was 90.09% and 90.26% and 90.84% and the inhibition at 0.0390625 µM (TMPRSS2; 39.0625 nM, rep1-rep4) was 90.6%. The “Inhibition: TMPRSS2” value (TMPRSS2; 78.125 nM, rep1-rep4, 0.078125 µM) was 94.96% and 95.13% and 95.23%, the inhibition at 0.078125 µM (TMPRSS2; 78.125 nM, rep1-rep4) was 95.3% and the “Inhibition: TMPRSS2” value (TMPRSS2; 156.25 nM, rep1-rep4, 0.15625 µM) was 97.46% and 97.80% and 98.15%. For the same molecule, the inhibition at 0.15625 µM (TMPRSS2; 156.25 nM, rep1-rep4) was 97.9%, the “Inhibition: TMPRSS2” value (TMPRSS2; 312.5 nM, rep1-rep4, 0.3125 µM) was 98.77% and 99.07% and 99.48% and the inhibition at 0.3125 µM (TMPRSS2; 312.5 nM, rep1-rep4) was 99.1%. For the same molecule, the “Inhibition: TMPRSS2” value (TMPRSS2; 625 nM, rep1-rep4, 0.625 µM) was 100.11% and 99.99% and 100.09%, the inhibition at 0.625 µM (TMPRSS2; 625 nM, rep1-rep4) was 100% and the “Inhibition: TMPRSS2” value (TMPRSS2; 1250 nM, rep1-rep4, 1.25 µM) was 100.27% and 100.14% and 100.40%. The inhibition at 1.25 µM (TMPRSS2; 1250 nM, rep1-rep4) was 101%, the “Inhibition: TMPRSS2” value (TMPRSS2; 2500 nM, rep1-rep4, 2.5 µM) was 100.86% and 100.80% and 100.93% and the inhibition at 2.5 µM (TMPRSS2; 2500 nM, rep1-rep4) was 101%. The “Inhibition: TMPRSS2” value (TMPRSS2; 5000 nM, rep1-rep4, 5 µM) was 102.04% and 102.07% and 102.13%, the inhibition at 5 µM (TMPRSS2; 5000 nM, rep1-rep4) was 101% and the CC50 (in vitro) was 172 µM.
